# Earlier results as cited in patent US8440844B2, “Process for the preparation of β-amino alcohol” (Council of Scientific & Industrial Research, priority 2011, dated 2013).
# What was measured:
# [1] = biological target: γ-secretase; conditions: Notch-1-sparing γ-secretase inhibitor; background statement, no method given
# [2] = test system: β-amyloid (Aβ) production; conditions: background statement
smiles,measurement,setting,value
"CCC(CC)[C@@H](CO)NS(=O)(=O)c1ccc(Cl)s1 [(S)—N-(5-chlorothiophene-2-sulfonyl)-β,β-diethylalaninol]",EC50,[1],28 nM
same,reduction of Aβ production in vivo,[2],effective in reduction of Aβ production in vivo
